# Measured values as given in PubChem BioAssay AID2060616 (Molecular Pharmacology Branch, DTP, NCI, 2025).
# System: 377384-186-R-J1-PDC complex spheroid viability
# Test: Anticancer human tumor 377384-186-R-J1-PDC patient-derived pancreatic carcinoma cell line growth inhibition [CLK]
# Details: for IC50: curve of first compound; for viability, T/C: stronger effect = lower value
# How it was run: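 Multi-cell-type spheroids combined patient-derived tumor cells with HUVEC endothelial cells and human mesenchymal stem cells. Paired agents were dosed in half-log steps down from about clinical Cmax, or from 10 microM where Cmax was unknown.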
# [1] = second compound 0.0316 µM, first compound 0.0316 µM
# [2] = second compound 0.0316 µM, first compound 0.1 µM
# [3] = second compound 0.0316 µM, first compound 0.316 µM
# [4] = second compound 0.0316 µM, first compound 1 µM
# [5] = second compound 0.0316 µM, first compound 3.16 µM
# [6] = second compound 0.0316 µM, first compound 10 µM
# [7] = second compound 0.1 µM, first compound 0.0316 µM
# [8] = second compound 0.1 µM, first compound 0.1 µM
# [9] = second compound 0.1 µM, first compound 0.316 µM
# [10] = second compound 0.1 µM, first compound 1 µM
# [11] = second compound 0.1 µM, first compound 3.16 µM
# [12] = second compound 0.1 µM, first compound 10 µM
# [13] = second compound 0.316 µM, first compound 0.0316 µM
# [14] = second compound 0.316 µM, first compound 0.1 µM
# [15] = second compound 0.316 µM, first compound 0.316 µM
# [16] = second compound 0.316 µM, first compound 1 µM
# [17] = second compound 0.316 µM, first compound 3.16 µM
# [18] = second compound 0.316 µM, first compound 10 µM
# [19] = second compound 1 µM, first compound 0.0316 µM
# [20] = second compound 1 µM, first compound 0.1 µM
# [21] = second compound 1 µM, first compound 0.316 µM
# [22] = second compound 1 µM, first compound 1 µM
# [23] = second compound 1 µM, first compound 3.16 µM
# [24] = second compound 1 µM, first compound 10 µM
# [25] = second compound 3.16 µM, first compound 0.0316 µM
# [26] = second compound 3.16 µM, first compound 0.1 µM
# [27] = second compound 3.16 µM, first compound 0.316 µM
# [28] = second compound 3.16 µM, first compound 1 µM
# [29] = second compound 3.16 µM, first compound 3.16 µM
# [30] = second compound 3.16 µM, first compound 10 µM
# [31] = second compound 10 µM, first compound 0.0316 µM
# [32] = second compound 10 µM, first compound 0.1 µM
# [33] = second compound 10 µM, first compound 0.316 µM
# [34] = second compound 10 µM, first compound 1 µM
# [35] = second compound 10 µM, first compound 3.16 µM
# [36] = second compound 10 µM, first compound 10 µM
# 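Note: spheroids exposed to agents for 7 days before reading.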
# 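Throughout, for viability, T/C: luminescence signal used as a stand-in for viable cells.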
compound,measurement,setting,value
COc1ccc([C@@H](O)c2cc(-c3ncnc4cc(N5CCOCC5)ccc34)c(F)cc2Cl)nn1 + CN1CCN(c2cc(C(=O)Nc3cc4cc(-c5cnn(C)c5)ccc4cn3)ccn2)CC1,IC50,second compound 0.0316 µM,6040 nM
same,IC50,second compound 0.1 µM,4230 nM
same,IC50,second compound 0.316 µM,< 31.6 nM
same,IC50,second compound 1 µM,< 31.6 nM
same,IC50,second compound 3.16 µM,< 31.6 nM
same,IC50,second compound 10 µM,< 31.6 nM
same,"viability, T/C",[1],119%
same,"viability, T/C",[2],111%
same,"viability, T/C",[3],88.8%
same,"viability, T/C",[4],78.2%
same,"viability, T/C",[5],59.3%
same,"viability, T/C",[6],42.5%
same,"viability, T/C",[7],114%
same,"viability, T/C",[8],99.9%
same,"viability, T/C",[9],73.7%
same,"viability, T/C",[10],70.6%
same,"viability, T/C",[11],57.6%
same,"viability, T/C",[12],37.2%
same,"viability, T/C",[13],18.3%
same,"viability, T/C",[14],22.8%
same,"viability, T/C",[15],16.8%
same,"viability, T/C",[16],18.1%
same,"viability, T/C",[17],18.5%
same,"viability, T/C",[18],16%
same,"viability, T/C",[19],0.76%
same,"viability, T/C",[20],0.63%
same,"viability, T/C",[21],0.7%
same,"viability, T/C",[22],1.13%
same,"viability, T/C",[23],1.12%
same,"viability, T/C",[24],1.02%
same,"viability, T/C",[25],0.38%
same,"viability, T/C",[26],0.32%
same,"viability, T/C",[27],1.16%
same,"viability, T/C",[28],0.36%
same,"viability, T/C",[29],0.35%
same,"viability, T/C",[30],0.98%
same,"viability, T/C",[31],0.49%
same,"viability, T/C",[32],0.35%
same,"viability, T/C",[33],0.33%
same,"viability, T/C",[34],0.39%
same,"viability, T/C",[35],1.26%
same,"viability, T/C",[36],0.36%
C=CC(=O)N1CCN(c2nc(=O)n(-c3c(C)ccnc3C(C)C)c3nc(-c4c(O)cccc4F)c(F)cc23)C(C)C1 (centres undefined) + CNC(=O)c1ccc(Nc2nc(OC3CCCC3)c3c(-c4ccc5nc(C)oc5c4)c[nH]c3n2)c(OC)c1,IC50,second compound 0.0316 µM,> 10000 nM
same,IC50,second compound 0.1 µM,2760 nM
same,IC50,second compound 0.316 µM,< 31.6 nM
same,IC50,second compound 1 µM,< 31.6 nM
same,IC50,second compound 3.16 µM,< 31.6 nM
same,IC50,second compound 10 µM,< 31.6 nM
same,"viability, T/C",[1],108%
same,"viability, T/C",[2],111%
same,"viability, T/C",[3],99.1%
same,"viability, T/C",[4],111%
same,"viability, T/C",[5],116%
same,"viability, T/C",[6],91.7%
same,"viability, T/C",[7],62.5%
same,"viability, T/C",[8],64.7%
same,"viability, T/C",[9],56.4%
same,"viability, T/C",[10],68.6%
same,"viability, T/C",[11],48.3%
same,"viability, T/C",[12],36%
same,"viability, T/C",[13],22.9%
same,"viability, T/C",[14],18.9%
same,"viability, T/C",[15],20.5%
same,"viability, T/C",[16],25%
same,"viability, T/C",[17],24%
same,"viability, T/C",[18],21.4%
same,"viability, T/C",[19],20.2%
same,"viability, T/C",[20],20.1%
same,"viability, T/C",[21],18.3%
same,"viability, T/C",[22],21.3%
same,"viability, T/C",[23],23.1%
same,"viability, T/C",[24],21.5%
same,"viability, T/C",[25],23.6%
same,"viability, T/C",[26],23.5%
same,"viability, T/C",[27],22%
same,"viability, T/C",[28],24.5%
same,"viability, T/C",[29],26.1%
same,"viability, T/C",[30],23.1%
same,"viability, T/C",[31],18.7%
same,"viability, T/C",[32],18.3%
same,"viability, T/C",[33],18.4%
same,"viability, T/C",[34],20.3%
same,"viability, T/C",[35],23.8%
same,"viability, T/C",[36],19.7%
